Here are results for 24 compounds from ChEMBL document CHEMBL1158480, “In silico prediction of volume of distribution in human using linear and nonlinear models on a 669 compound data set” (J Med Chem, 2009).

Data set [1] can be described thus: Volume of distribution at steady state in human at 2.5 mg, iv administered as bolus dose. It is filed as ADME, organism-based. To be noted: in vivo, read-out: Vdss.
The nature of data set [2]: Volume of distribution at steady state in human at 15 ng/kg/min, iv administered 150 mins infusion. It is filed as ADME, organism-based. To be noted: in vivo, read-out: Vdss.
Data set [3] can be described thus: Mean residence time in human at 2 mg, iv. It is filed as ADME, organism-based. To be noted: in vivo.
The nature of data set [4]: Half life in human at 2 mg, iv. It is filed as ADME, organism-based. To be noted: in vivo.
Data set [5] in a line: Clearance in human at 2 mg, iv. To be noted: in vivo. It is filed as ADME, organism-based.
A short description of data set [6]: Volume of distribution at steady state in human at 25 mg, iv. It is filed as ADME, organism-based. To be noted: in vivo, read-out: Vdss.
Data set [7] can be described thus: Clearance in human at 200 ug. To be noted: in vivo. It is filed as ADME, organism-based.
Data set [8] is described as follows: Volume of distribution at steady state in human. To be noted: in vivo.
Data set [9] is described as follows: Volume of distribution at steady state in human at 0.2 mg, iv. It is filed as ADME, organism-based. To be noted: in vivo, read-out: Vdss.
A short description of data set [10]: Volume of distribution at steady state in human at 2.8 mg, iv. It is filed as ADME, organism-based. To be noted: in vivo, read-out: Vdss.
A short description of data set [11]: Volume of distribution at steady state in human dosed 1 hr iv infusion. To be noted: in vivo.
Data set [12] is described as follows: Volume of distribution at steady state in human at 0.149 mg/kg, iv. It is filed as ADME, organism-based. Details: dose 0.149 mg/kg, route intravenous. To be noted: in vivo, read-out: Vdss.
Data set [13] in a line: Half life in human administered three way cross over study in 11, 10 and 12 healthy subjects at 5, 10, 15 mg dose respectively as 1 hr infusion. It is filed as ADME, organism-based. To be noted: in vivo, intravenous.
The nature of data set [14]: Clearance in human administered three way cross over study in 11, 10 and 12 healthy subjects at 5, 10, 15 mg dose respectively as 1 hr infusion. It is filed as ADME, organism-based. To be noted: in vivo, intravenous.
Data set [15] is described as follows: Mean residence time in human administered three way cross over study in 11, 10 and 12 healthy subjects at 5, 10, 15 mg dose respectively as 1 hr infusion. To be noted: in vivo, intravenous. It is filed as ADME, organism-based.
Data set [16] in a line: Clearance in human given 31 administration across 6 doses 2.5 to 25 mg administered 30 mins infusion each dose separated by 13 days. It is filed as ADME, organism-based. To be noted: in vivo, iv.
Data set [17] is described as follows: Mean residence time in human given 31 administration across 6 doses 2.5 to 25 mg administered 30 mins infusion each dose separated by 13 days. It is filed as ADME, organism-based. To be noted: in vivo, iv.
Data set [18] in a line: Half life in human given 31 administration across 6 doses 2.5 to 25 mg administered 30 mins infusion each dose separated by 13 days. It is filed as ADME, organism-based. To be noted: in vivo, iv.
Data set [19] in a line: Total clearance in human at 0.1 mg/kg administered 15 mins infusion. It is filed as ADME, organism-based. Also on record: dose 0.1 mg/kg. To be noted: in vivo, iv.
Data set [20] in a line: Volume of distribution at steady state in human at 0.1 mg/kg administered 15 mins infusion. It is filed as ADME, organism-based. Details: dose 0.1 mg/kg. To be noted: in vivo, iv, read-out: Vdss.
Data set [21] is described as follows: Volume of distribution at steady state in human at 150 mg, iv. It is filed as ADME, organism-based. To be noted: in vivo, read-out: Vdss.
Data set [22] can be described thus: Volume of distribution at steady state in human at 50 mg, iv. It is filed as ADME, organism-based. To be noted: in vivo, read-out: Vdss.
The nature of data set [23]: Volume of distribution in human at 100 mg administered 30 mins infusion. It is filed as ADME, organism-based. To be noted: in vivo, iv.
Data set [24] in a line: Volume of distribution at steady state in human at 1 mg/kg, iv administered 20 mins infusion. It is filed as ADME, organism-based. Details: dose 1 mg/kg, route intravenous. To be noted: in vivo, read-out: Vdss.
Data set [25] is described as follows: Volume of distribution at steady state in human at 1 mg/kg. It is filed as ADME, organism-based. Also on record: dose 1 mg/kg. To be noted: in vivo, read-out: Vdss.
A short description of data set [26]: Volume of distribution at steady state in human at 130 mg administered 90 mins infusion. It is filed as ADME, organism-based. To be noted: in vivo, iv, read-out: Vdss.
Data set [27] in a line: Volume of distribution at steady state in human at 100 mg, iv. To be noted: in vivo, read-out: Vdss. It is filed as ADME, organism-based.
A short description of data set [28]: Volume of distribution at steady state in human administered three sequential 4-h infusion at 1, 5 and 15 mg/hr. To be noted: in vivo, iv, read-out: Vdss. It is filed as ADME, organism-based.
Data set [29] is described as follows: Volume of distribution at steady state in human at 5 mg, iv. It is filed as ADME, organism-based. To be noted: in vivo, read-out: Vdss.
Data set [30] can be described thus: Volume of distribution at steady state in human administered 1 to 12 g doses with 2 to 3.5 hrs iv infusion. It is filed as ADME, organism-based. To be noted: in vivo, read-out: Vdss.
A short description of data set [31]: Volume of distribution at steady state in human at 10 mg, iv. To be noted: in vivo, read-out: Vdss. It is filed as ADME, organism-based.

As to `OCCN1CCN(CCCN2c3ccccc3Sc3ccc(C(F)(F)F)cc32)CC1` [FLUPHENAZINE], the Vd in [1] came out at 2.9 L/kg.

For `CCCCC[C@H](O)CC[C@@H]1[C@H]2Cc3cccc(OCC(=O)O)c3C[C@H]2C[C@H]1O` [TREPROSTINIL], the Vd in data set [2] was 0.23 L/kg.

The term MRT denotes a mean duration of stay, worked out from the concentration-time curve. For orientation: half-life means how long it takes for the measured level to halve. Usually clearance stands for the volume of plasma or blood freed of the substance per unit of time. Regarding `CCc1nc2c(N)nc3ccccc3c2n1CCCCNS(C)(=O)=O` [CPG-52852], the mean residence time MRT in data set [3] was found to be 4.7 h. Also, the half-life in data set [4] was 7.1 h. The same compound had a clearance in [5] of 7.7 mL/min/kg.

On to `CC(=O)CC(c1ccc([N+](=O)[O-])cc1)c1c(O)c2ccccc2oc1=O` (stereo not drawn) [ACENOCOUMAROL], for which the Vd in data set [6] is 0.24 L/kg.

In data set [7], `CC(=O)Nc1ccc(C2=NNC(=O)C[C@H]2C)cc1` showed a clearance of 33.3 mL/min. In addition, the Vd in data set [8] was found to be 2.38 L/kg.

As to `C[C@@H]1CN([C@H]2CC[C@](C#N)(c3ccc(F)cc3)CC2)CC[C@]1(C(=O)O)c1ccccc1` [LEVOCABASTINE], the Vd in [9] was found to be 1.17 L/kg.

`CC(C)Oc1ccccc1N1CCN(Cc2cccc(C(=O)N3CCCCC3)c2)CC1` [MAZAPERTINE]: in [10], the Vd worked out at 1.54 L/kg.

In [11], `C[C@]12CC[C@@H]3c4ccc(O)cc4C[C@@H](CCCCCCCCC[S+]([O-])CCCC(F)(F)C(F)(F)F)[C@H]3[C@@H]1CC[C@@H]2O` (stereo partly drawn) [FULVESTRANT] returned a Vd at 1 h of 4.15 L/kg.

In the case of `Cc1nc(=O)c(C#N)c(NCc2cccnc2)[nH]1` [PELRINONE], the Vd in [12] was 0.39 L/kg.

With `CN(c1nc2ccccc2s1)C1CCN(C[C@H](O)COc2ccc(F)c(F)c2)CC1` [LUBELUZOLE], the half-life in [13] is 23.5 h; in data set [18], 19.8 h. In addition, the clearance in data set [14] was determined as 1.8 mL/min/kg; in data set [16] it was 1.54 mL/min/kg. The results for the mean residence time (MRT) in data set [15] and in data set [17] were 28.7 h and 23.3 h, respectively.

`Cc1nccn1CCC(C(N)=O)(c1ccccc1)c1ccccc1` [IMIDAFENACIN] had a clearance in data set [19] of 492 mL/min. For the same compound, the Vd in data set [20] is 1.51 L/kg.

Take `COCCOC[C@H](CC1(C(=O)N[C@H]2CC[C@@H](C(=O)O)CC2)CCCC1)C(=O)O` [CANDOXATRILAT]: in data set [21], the Vd stood at 0.25 L/kg.

In the case of `COC(=O)c1cnc2n1CCc1ccccc1C2=C1CCN(CCc2ccc(OCc3ccc4ccccc4n3)cc2)CC1`, the Vd in data set [22] was 6.03 L/kg.

As for `CC1(C)[C@@H](O[C@H]2O[C@H](C(=O)O)[C@@H](O)[C@H](O)[C@H]2O[C@H]2O[C@@H](C(=O)O)[C@H](O)[C@@H](O)[C@@H]2O)CC[C@]2(C)[C@H]3C(=O)C=C4[C@@H]5C[C@@](C)(C(=O)O)CC[C@]5(C)CC[C@@]4(C)[C@]3(C)CC[C@@H]12` [ISOGLYCIRRHIZINATE], the Vd in [23] turned out to be 0.05 L/kg.

As for `CC(=O)N(CCC(CCN1CCCCC1)(C(N)=O)c1ccccc1Cl)C(C)C` (stereo not drawn) [BIDISOMIDE], the Vd in data set [24] turned out to be 2.6 L/kg.

For the compound `CO[C@H]1C[C@H](O[C@H]2[C@H](C)[C@@H](O[C@@H]3O[C@H](C)C[C@H](N(C)C)[C@H]3O)[C@@H](C)C[C@@]3(CO3)C(=O)[C@H](C)[C@@H](O)[C@@H](C)[C@@H](C)OC(=O)[C@@H]2C)O[C@@H](C)[C@@H]1O` [OLEANDOMYCIN], in [8], the Vd came out at 0.77 L/kg.

On to `CC(C)(N)CC(=O)N[C@@H]1CCc2ccccc2N(Cc2ccc(-c3ccccc3-c3nnn[nH]3)cc2)C1=O`, for which, in data set [25], the Vd was 0.2 L/kg.

For `O=C(O)c1ccc(-n2nc(-c3ccccc3O)nc2-c2ccccc2O)cc1` [DEFERASIROX], the Vd in data set [26] was 0.2 L/kg.

With `O=C(O)CCCCO/N=C(/c1cccnc1)c1cccc(C(F)(F)F)c1` [RIDOGREL], the Vd in [27] was determined as 0.43 L/kg.

Take `COc1ccccc1Oc1c(NS(=O)(=O)c2ccc(C)cn2)nc(-c2ccnc(-c3nnn[nH]3)c2)nc1OCCO` [CLAZOSENTAN]: in data set [28], the Vd amounted to 0.23 L/kg.

As to `Cc1nc2sccn2c(=O)c1CCN1CCC(=C(c2ccc(F)cc2)c2ccc(F)cc2)CC1` [RITANSERIN], the Vd in data set [29] was 1.41 L/kg.

Consider `Nc1ccn([C@@H]2O[C@H](CO)[C@@H](O)[C@@H]2O)c(=O)n1` [CYTARABINE], for which the Vd in data set [30] amounted to 0.67 L/kg.

With `CN(c1nc2ccccc2s1)C1CCN(CC(O)COc2ccc(F)cc2)CC1` (stereo not drawn) [SABELUZOLE], in data set [31], the Vd was 5.5 L/kg.

Compound `C[C@@H]1[C@H](O)[C@@H](C)/C=C/C=C/C=C/C=C/C=C/C=C/C=C/[C@H](O[C@@H]2O[C@H](C)[C@@H](O)[C@H](N)[C@@H]2O)C[C@@H]2O[C@](O)(C[C@@H](O)C[C@@H](O)[C@H](O)CC[C@@H](O)C[C@@H](O)CC(=O)O[C@H]1C)C[C@H](O)[C@H]2C(=O)O` [AMPHOTERICIN B] came in with a Vd in data set [8] of 0.62 L/kg.
